Assay [1] relates to aged normal human primary epidermal keratinocytes. As to the kind of experiment: MTT assay (SDH activity), aged keratinocytes. It is filed as cell-based. The method, then:
Culturing normal human epithelial cells. The pooled normal human primary epidermal keratinocytes were purchased from Cambrex (Baltimore, Md.) and sub-cultured in the specific growth media provided by the manufacturer (KGM-2). […] Exponentially growing keratinocytes were treated and harvested in their early passages (2-3 passages).
In general terms: Tetrazolium assays rely on reduction of a dye to a coloured formazan, in cell work by metabolically active cells.

The subject of another assay is p57. The assay can be described thus: Western blot of p57 in mammary epithelial cells. It is filed as cell-based, human. Particulars: EGCG 15 to 200 μM, 24 h. As for the experimental part: Western blot analysis. The keratinocytes and the mammary epithelial cells were placed in KGM-2 and MEGM, respectively, overnight prior to treatment. Cells were lysed, after 24-hour treatment, in RIPA buffer (1% NP-40, 1% sodium deoxycholate, 0.1% SDS, 0.15 M NaCl, 0.01 M sodium phosphate, pH 7.2, and 1% Trasylol) containing proteinase inhibitors (1 mM PMSF, 1 μg/ml each of aprotinin, leupeptin, and pepstatin). The concentration of protein in each sample was determined using the BioRad DC Protein Assay and spectrophotometry. 50 μg of protein from each sample and a BioRad molecular weight standard marker were run on a 10% SDS-PAGE, followed by transfer to nitrocellulose membranes. Nonspecific binding to the membranes was blocked with 10% nonfat milk. Primary polyclonal (rabbit) antibodies and a horseradish peroxidase-conjugated goat anti-rabbit secondary antibody were used in conjunction with the ECL Chemiluminescence Kit (Amersham Pharmacia Biotech, New Jersey) and membranes were exposed to radiographic films for detection. Western blots were digitized for comparison of the intensity for each band using the ImageTool image analysis software program (University of Texas Health Science Center, San Antonio, Tex.). The integrated density of each band was measured using identical 1480 pixel areas of each Apfa-1 or Actin band at a scale of densities from 0 to 255. […]
Background: Immunoblotting shows a protein as a band on a membrane.

Another assay has as its system caspase 3. The assay can be described thus: Caspase 3 activity assay, MCF7(C) caspase 3+ cells. It is filed as cell-based, human. The settings on record: increasing EGCG or 0.2 mg/ml GTPPs, 24 h. The method, then: Caspase 3 activity assay. The Caspase 3 Apoptosis Detection Kit was purchased from Santa Cruz Biotech. Inc. In a 24 well tissue culture plate, 10^5 cells/well of cells in triplicates were plated. […] To each well, 100 μl of 2×reaction buffer was added with […]. Finally, 5 μl of DEVD-AFC substrate was added to each well containing cell lysates. The reaction mixtures were incubated for 1 hour at 37° C. The caspase 3 activity in each well was measured using a fluorescence microplate reader set for 405 nm excitation and 505 nm emission.

The test system of the next assay is catalase. The assay can be described thus: Catalase activity assay in cell lysates. It is filed as cell-based, human. As for the experimental part:
Assays for SOD and catalase activities. Cells (1×10^6 cells/well) were incubated with or without EGCG (50 μM) in FilterCap 50 ml flasks (Nagel Nunc International, Rochester, N.Y.) for 30 minutes at 37° C. After the incubation, cells were harvested and disrupted in 100 μl of 10 mM Tris-HCl (pH 7.4) containing 0.1%(v/v) Triton X-100, 10 μg/ml leupeptin, 10 μg/ml pepstatin A and 100 mM phenylmethylsulfonyl fluoride by three cycles of freezing/thawing. After centrifugation at 17,000×g for 20 minutes at 4° C., the supernatants were used for SOD and catalase assays using the SOD Assay Kit-WST (Dojindo Molecular Technologies, Inc., Gaithersburg, Md.) and the AMPLEX Red Catalase Assay Kit (Molecular Probes), respectively. The activities of SOD and catalase were calibrated using a standard curve prepared with purified human SOD and catalase. The activities of SOD and catalase were expressed as units (U)/10^6 cells.
Assays for SOD and catalase activities. Cells (10^5 cells/well) were incubated with or without EGCG (50 μM) in 24-well culture plates for desirable time periods at 37° C. After the incubation, cells were harvested and disrupted in 100 μl of 10 mM Tris-HCl (pH 7.4) containing 0.1% (v/v) Triton ×-100, 10 μg/ml leupeptin, 10 μg/ml pepstatin A and 100 mM PMSF by three cycles of freezing/thawing. After centrifugation at 17,000×g for 20 minutes at 4° C., the supernatants were used for SOD and catalase assays using the SOD Assay Kit-WST (Molecular Technologies, Inc., Gaithersburg, Md.) and the Amplex Red Catalase Assay Kit (Molecular Probes), respectively. The activities of SOD and catalase were calibrated using a standard curve prepared with purified human SOD and catalase. The activities of SOD and catalase were expressed as units (U)/10^6 cells.

A further assay has as its system OSC2 cells. As to the kind of experiment: Cell invasion/migration assay (Transwell), OSC2 cells. It is filed as cell-based, human. Particulars: 50 μM EGCG. As for the experimental part: Cell invasion/migration assay. The invasion/migration assays were conducted using a Transwell apparatus (Costar) with 6.5 mm diameter wells and membranes of 8 μm pore size. The invasiveness at each time point was tested in DMEM/F12 medium immediately following the cell growth assay, by seeding 10^5 cells in each transwell. Cells migrated across the transwell membrane were counted as per microscopic field.

The test system of a further assay is OSC-4 cells. The assay can be described thus: MTT assay (SDH activity), OSC-4 cells. It is filed as cell-based, human. The settings on record: 24 hours.

Consider one compound from US20040191842A1, “Chemopreventive and therapeutic aspects of polyphenolic compositions and assays” (Medical College of Georgia Research Institute, Inc., priority 2002, published 2004).

Experimental for OSC-4 cells: MTT [3-(4,5-dimethylthiazol-2-yl)-2,5-diphenyl tetrazolium bromide] assay. This method directly detects the activity of mitochondrial succinate dehydrogenase (SDH). Changes in SDH activity is a measurement of cell viability when stress is introduced in cell culture through chemical or physical means. Cells (1.5×10^4 cells/well) were seeded in a 96-well microplate and treated with the indicated doses of EGCG for 24 hours. After the treatment, the cells in each well were washed with 200 μl of phosphate-buffered saline (PBS), incubated with 100 μl of 2% MTT in a solution of 0.05 M Tris, 0.5 mM MgCl2, 2.5 mM CoCl2, and 0.25 M disodiumn succinate as substrate (Sigma) at 37° C. for 30 minutes. Cells were fixed in situ by the addition of 100 μl of 4% formalin in 0.2 M Tris (pH 7.7), and after a 5 minute incubation at room temperature liquid was removed and the wells were allowed to dry. Each well was rinsed with 200 μl water and cells were solubilized by the addition of 100 μl of 6.35% 0.1 N NaOH in DMSO. The colored formazan product was measured by a Thermo MAX micro plate reader (Molecular Devices Corp., Sunnyvale, Calif.) at a wavelength of 562 nm. Experiments were repeated three times with triplicate samples for each experiment.

As for `O=C(O[C@@H]1Cc2c(O)cc(O)cc2O[C@@H]1c1cc(O)c(O)c(O)c1)c1cc(O)c(O)c(O)c1` [EGCG, (−)-epigallocatechin-3-gallate], in assay [1] (EGCG concentrations higher than 100 μM), the “SDH activity and BrdU incorporation” value was “consistently induced both SDH activity and BrdU incorporation”. Besides, the “activation of succinate dehydrogenase (SDH), MTT assay” value in assay [1] (keratinocytes 25 days in culture, 24 h treatment) is reported as “up to 37 fold”. Further, the p57 levels result with p57 is given as “no significant changes”. Also, the “caspase 3 activation” value in the assay on caspase 3 was “demonstrated activated caspase 3”. Besides, the catalase activity entry in the assay on catalase (50 μM EGCG, 30 minutes, NHEK, OSC-2, OSC-4) is “Significant changes in catalase activity was not observed”. Further, in the assay with catalase (EGCG, 24-hour treatment period), the “catalase activity in OSC-4 cells” value is given as “slight decrease”. Further, the “catalase and total SOD enzymatic activity levels” value in the assay on catalase (EGCG, 24-hour treatment period, NHEK, OSC-2, OSC-4) is recorded as “had no effect on the enzymatic activity levels”. Also, the “cells invading the membrane, of control” value is recorded as “about 30%” in the assay on OSC2 cells (24 hours) and 20% in the assay with OSC2 cells (96 hours). Also, the “mitochondrial SDH activity” value in the assay on OSC-4 cells (50 μM EGCG) was “did not show significant changes”; with OSC-4 cells (200 μM EGCG) it was “significantly reduced SDH activity and DNA synthesis”. Moreover, the “SDH activity, of untreated control” value in the assay on OSC-4 cells (200 μM EGCG) is recorded as “less than 75%”.
